Experimental data: patent US20140134178A1, “PHOSPHORYLATION OF HISTONES AND USES THEREOF” (H. LEE MOFFITT CANCER CENTER AND RESEARCH INSTITUTE, priority 2012, published 2014)
Entries after “also recorded” stand apart in the source; their conditions may differ. Values belong to the compound of their own block, whether it stands above or below them.

How the values were obtained:
[1] = biological target: T1, Ack1 (Homo sapiens, UniProt Q07912); type: cell-based; parameters: endogenous in cells; host or cells: LAPC4
T1 sequence (Q07912 whole entry): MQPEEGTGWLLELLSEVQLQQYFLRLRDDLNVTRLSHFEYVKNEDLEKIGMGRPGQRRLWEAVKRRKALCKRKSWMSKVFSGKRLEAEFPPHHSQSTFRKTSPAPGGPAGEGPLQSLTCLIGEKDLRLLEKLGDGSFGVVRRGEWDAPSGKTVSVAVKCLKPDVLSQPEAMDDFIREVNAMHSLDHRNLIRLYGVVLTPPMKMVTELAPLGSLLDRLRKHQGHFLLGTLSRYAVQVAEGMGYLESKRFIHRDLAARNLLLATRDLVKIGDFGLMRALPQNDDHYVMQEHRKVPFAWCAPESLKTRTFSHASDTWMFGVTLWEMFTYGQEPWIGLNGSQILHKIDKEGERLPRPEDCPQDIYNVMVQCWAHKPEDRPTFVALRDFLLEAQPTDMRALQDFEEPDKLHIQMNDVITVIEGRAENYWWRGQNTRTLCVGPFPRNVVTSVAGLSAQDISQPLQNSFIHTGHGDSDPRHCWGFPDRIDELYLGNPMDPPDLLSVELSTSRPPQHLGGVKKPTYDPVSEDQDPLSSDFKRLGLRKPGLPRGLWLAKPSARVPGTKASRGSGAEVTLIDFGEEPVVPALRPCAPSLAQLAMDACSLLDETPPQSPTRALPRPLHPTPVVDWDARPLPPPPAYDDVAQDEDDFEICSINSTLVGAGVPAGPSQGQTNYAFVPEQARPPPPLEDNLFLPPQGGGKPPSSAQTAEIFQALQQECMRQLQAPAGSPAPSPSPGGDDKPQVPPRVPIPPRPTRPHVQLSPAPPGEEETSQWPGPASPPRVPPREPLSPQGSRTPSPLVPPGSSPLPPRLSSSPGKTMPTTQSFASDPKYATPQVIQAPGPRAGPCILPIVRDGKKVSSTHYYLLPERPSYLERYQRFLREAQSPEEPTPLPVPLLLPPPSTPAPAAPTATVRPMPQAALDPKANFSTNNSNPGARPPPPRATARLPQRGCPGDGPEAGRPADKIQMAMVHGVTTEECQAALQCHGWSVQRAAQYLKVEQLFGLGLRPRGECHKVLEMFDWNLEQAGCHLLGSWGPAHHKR
Procedure: The prostate cancer derived cells, LAPC4 were treated with AIM-100 (7 uM, 16 hours). The equal amount of cell lysates were subjected to immunoblotting with H3K9me3 and histone H3 antibodies. […] The histone H3 antibodies were used as a control to indicate equal amount of protein.
LAPC4 cells were treated with EGF or EGF and AIM-100 and the lysates were immunoblotted with H3K9 dimethyl and H3K27 dimethyl antibodies.

[2] = test system: LNCaP-caAck expressing cells; experiment: Prostate xenograft tumor growth, LNCaP-caAck cells in castrated nude male mice; type: in vivo; conditions: 4 mg/kg of body weight per injection, five times
Procedure: Castrated nude male mice were injected with LNCaP-caAck expressing cells. Mice were injected with AIM-100 (4 mg/kg of body weight per injection) on five times (n=8) and tumor volumes were measured.

[3] = test system: pTyr267-AR; experiment: ChIP-qPCR for pTyr267-AR binding to PSA, NKX3.1 and TMPRSS2 AREs in LAPC4 cells; type: cell-based; conditions: 0.8 μM, 16 hr
Procedure: LAPC4 cells were treated with DHT (5 nM, 16 hr), EGF (10 ng/ml, 1 hr), or EGF and AIM-100 (0.8 μM, 16 hr) and ChIP analysis for pTyr267-AR binding to the PSA, NKX3.1 and TMPRSS2 AREs was performed followed by qPCR. Ack1 inhibition by AIM-100 suppressed recruitment of pTyr-AR to PSA, NKX3,1 and TMPRSS2 promoters (FIGS. 8A-8C).

[4] = test system: Xenopus laevis embryos; experiment: Xenopus embryo injection, gastrulation/epiboly phenotype
Text: Table 4 provides the phenotype distribution for surviving embryos (raw data are identical to those in Table 3).

[5] = biological target: T1, Ack1; type: biochemical; parameters: endogenous in cells; host or cells: LAPC4; conditions: purified Ack1, H4 peptide, ELISA with pY88 antibodies
Procedure: WEE1 and Ack1 are two non-receptor tyrosine kinases or NRTKs that have known nuclear functions. To determine whether WEE1 and Ack1 can directly target H4 for Tyr88-phosphorylation, this study performed in vitro kinase assay. In brief, the Streptavidin coated 96-well plates (R&D systems) were incubated with biotinylated H4-derived peptide […] (SEQ ID NO: 64) for 1 hour. The plates were washed and the purified WEE1 or Ack1 were added in kinase buffer (20 mM HEPES, 150 mM NaCl, 0.5% Triton X-100, 10% Glycerol, phosphatase and protease inhibitors) containing ATP and MgCl2. After 2 hours of incubation, plates were washed with phosphate buffered saline containing 0.1% Tween 20 (PBST) and blocked in 3% BSA. The pY88-H4 antibodies (at 1:500 dilution) were added and incubated for 1 hour. Unbound antibodies were washed and HRP-conjugated anti-mouse secondary Antibodies (1:2000) were added. Magnitude of phosphorylation was detected using developer solution (OPD tablets, Sigma) and the plates were read at 450 nm. As a negative control, no kinase and no peptide reactions were used. The biotinylated phosphopeptide […]p[…] (SEQ ID NO: 65) was used as a positive control.

[6] = biological target: T1, Ack1; experiment: H4 Tyr51-phosphorylation in EGF-treated HEK293T cells (IP/immunoblot); type: cell-based; parameters: endogenous in cells; host or cells: HEK293T; conditions: serum starved HEK293T, EGF+AIM-100
Procedure: To examine whether H4 is a Ack1 kinase substrate, cells were treated with EGF or EGF+Ack1 inhibitor, AIM-100 (Mahajan, K., et al. Prostate 70, 1274-1285 (2010)). Specifically, serum starved HEK293T were treated with EGF or EGF+AIM-100 and cells were harvested. […] Equal amounts of lysates were immunoblotted with H4 antibody or pTyr284-Ack1 antibody.

[7] = test system: Ack1; experiment: Ack1 phosphorylation of histone H3 at Tyr99 in ligand-treated cell lines; type: cell-based
Text: The discovery was made that Ack1 phosphorylates histone H3 at tyrosine 99. To delineate functional consequences of H3 Ty99-phosphorylation, phospho-antibodies were raised. […] Thus, marking of chromatin with H3-Tyr99-phosphorylation within AR-target gene promoters may suppress repressive dimethylation leading to transcriptional activation in androgen-deprived environment of CRPC tumors. This study uncovers a previously unknown mechanism of regulation of pTyr267-AR-target gene expression, which can be therapeutically reversed by suppression of Ack1/AR/pTyr99-H3 signaling by AIM-100.

[8] = test system: PSA, NKX3,1 and TMPRSS2 genes; experiment: Testosterone-independent expression of AR-target genes; type: cell-based
[9] = biological target: T2, Ack1 (Homo sapiens, UniProt Q07912, E346K); type: biochemical; conditions: 5 uM for 1 hour at 30° C.
T2 construct: HA; made in house
T2 sequence (Q07912 whole entry E346K): as the sequence (Q07912 whole entry) above, with E346K counted along it
Procedure: To test whether Ack1 directly phosphorylates H4, in vitro kinase assay (Mahajan, K., et al. PLoS One 5, e9646 (2010)) was performed. […] HEK293 cells were treated with EGF or EGF+AIM-100 (5 uM, 14 hour) and lysates were immunoprecipitated with Ack1 antibodies followed by immunoblotting with H4 antibodies.

[10] = test system: pTyr37-H2B upstream of Hist1 cluster; experiment: Native ChIP-qPCR with pTyr37-H2B antibody, Site I and II upstream of Hist1 cluster, synchronized MEFs; type: cell-based, mouse; conditions: 6.30 hours post-release
Procedure: MEFs or H1975 were grown to 60-70% confluency in serum rich media. Thymidine is added at a final concentration of 2 mM and incubated for 17 hours. Cells were washed three times with phosphate buffered saline (PBS) and fresh serum containing media was added. After 10 hours, thymidine was added again to 2 mM final concentration. The cells were incubated for 17 hours and washed three times with PBS, replaced with serum containing media and time points were collected.
As a first step, extensive standardization of pTyr37-H2B antibodies were performed for its usage in ChIP. CHIP was performed using the Active Motif kit as per manufacturer's instructions. For ChIP synchronized MEFs were harvested at 0 and 6.30 hour post thymidine release (5×10^7 cells). Cells pellets were lysed in RLB buffer (Mahajan, N. P. et al. Proc. Nat. Acad. Sci. U.S.A. 104, 8438-8443 (2007); Mahajan, K. et al. Prostate 70, 1274-1285 (2010)) on ice for 10 minutes and sonicated for 25 seconds to shear DNA to an average length of 300-500 bp. The soluble chromatin was incubated overnight at 4° C. with pTyr37-H2B antibody. 20 μl of protein-A agarose was added and the beads were washed sequentially and DNA was eluted. […] Pellets were resuspended and the resulting DNA was quantified on a NanoDrop spectrophotometer. Extrapolation to the original chromatin volume allowed quantitation of the total chromatin yield. […]

[11] = test system: NPAT and RNA polymerase II at site II; experiment: ChIP-qPCR with NPAT or RNA polymerase II antibodies at Site II, synchronized MEFs; type: cell-based, mouse; conditions: 6.30 hours post-release
Procedure: As a first step, extensive standardization of pTyr37-H2B antibodies were performed for its usage in ChIP. CHIP was performed using the Active Motif kit as per manufacturer's instructions. For ChIP synchronized MEFs were harvested at 0 and 6.30 hour post thymidine release (5×10^7 cells). Cells pellets were lysed in RLB buffer (Mahajan, N. P. et al. Proc. Nat. Acad. Sci. U.S.A. 104, 8438-8443 (2007); Mahajan, K. et al. Prostate 70, 1274-1285 (2010)) on ice for 10 minutes and sonicated for 25 seconds to shear DNA to an average length of 300-500 bp. The soluble chromatin was incubated overnight at 4° C. with pTyr37-H2B antibody. 20 μl of protein-A agarose was added and the beads were washed sequentially and DNA was eluted. Genomic DNA (Input) was prepared by treating aliquots of chromatin with RNase, proteinase-K followed by ethanol precipitation. Pellets were resuspended and the resulting DNA was quantified on a NanoDrop spectrophotometer. Extrapolation to the original chromatin volume allowed quantitation of the total chromatin yield. An aliquot of chromatin (20-30 μg) was pre-cleared with protein-A agarose beads (Invitrogen). Genomic DNA regions of interest were isolated using pTyr37-H2B antibody. […]
To understand the potential mechanism of repression of histone transcription the role of NPAT was assessed. […]

[12] = test system: core histone genes located in Hist1 cluster; experiment: qRT-PCR of histone genes in synchronized cells (8-histone gene signature); type: cell-based; conditions: MK1775 0.6 uM, 14 hr; 8.30 hours post-release
Procedure: Human cells have 55 distinct histone genes each encoding a fraction of core histones. This study determined histone levels using 20 of these genes. In untreated cells, rapid decrease in transcripts of all of these histone genes was observed when RNA levels of 6.30 hours post-release samples (late S phase) were compared with 8.30 hours post-release (G2/M phase) samples (FIG. 33a-h).

[13] = test system: core histone genes in Hist1 cluster; experiment: Quantitative RT-PCR of core histone transcripts in synchronized MEFs; type: cell-based, mouse; conditions: MK1775 0.625 μM, 14 hr; 8.30 hours post-release
Procedure: MEFs or H1975 were grown to 60-70% confluency in serum rich media. Thymidine is added at a final concentration of 2 mM and incubated for 17 hours. Cells were washed three times with phosphate buffered saline (PBS) and fresh serum containing media was added. After 10 hours, thymidine was added again to 2 mM final concentration. The cells were incubated for 17 hours and washed three times with PBS, replaced with serum containing media and time points were collected. All RT reactions were done (Mahajan, K. et al. PLoS One 5, e9646 (2010)) at the same time so that the same reactions could be used for all gene studies. For the construction of standard curves, serial dilutions of pooled sample RNA were used (50, 10, 2, 0.4, 0.08, and 0.016 ng) per reverse transcriptase reaction. One “no RNA” control and one “no Reverse Transcriptase” (No RT) controls were included for the standard curve. Three reactions were performed for each sample: 10 ng, 0.8 ng, and a No RT (10 ng) control. Real-time quantitative PCR analyses were performed using the ABI PRISM 7900HT Sequence Detection System (Applied Biosystems). […] Data were analyzed using SDS software version 2.2.2 and exported into an Excel spreadsheet. […]

[14] = test system: cancers and cancer cell lines; conditions: cited from earlier work
[15] = test system: WEE1 expressing cancer cell lines; conditions: cited from earlier work
[16] = test system: S. cerevisiae wildtype and H2BY40A mutants; experiment: Yeast spot growth assay on YPD plates with MMS; type: cell-based, Saccharomyces cerevisiae; conditions: in contrast to wild type cells, growth 72 h post-plating
Procedure: Wt and H2BY40A mutants were serially diluted and spotted on YPD plates in the absence or presence of MMS and growth was assessed 72 h post-plating.
To test whether excess of histones interfere with the ability of cells to repair DNA damage, S. cerevisiae wildtype (Wt) and H2BY40A mutants were exposed to DNA alkylating agent Methylmethane sulphonate (MMS). MMS inhibits DNA replication by methylating adenine or guanine in the DNA to cause base mispairing and stalling of replication forks, until the mutated/alkylated bases are excised out and replaced with the normal bases by the DNA alkyl transferases or the nucleotide repair machinery. […] Rad53 is a functional homologue of human Chk1 and Chk2 in budding yeast. It not only senses DNA replication stress during S phase but also acts as a surveillance machinery to detect excess histones that are not packaged into chromatin and targets them for degradation.

[17] = Table 3, antibodies 200 ng/em, AIM-100 200 pM/em

Compound: c1ccc(-c2oc3ncnc(NC[C@@H]4CCCO4)c3c2-c2ccccc2)cc1 [AIM-100]
- H3K9 and K27 dimethylation and trimethylation [1]: increased
- H3 K9 trimethylation ([1]; LAPC4 cells, 7 uM, 16 hours): increased; also recorded: significant increase
- H3K9 and K27 dimethylation ([1]; LAPC4 cells, EGF and AIM-100): increased
- prostate xenograft tumor growth [2]: mitigated; also recorded: partially suppresses
- recruitment of pTyr-AR to PSA, NKX3,1 and TMPRSS2 promoters [3]: suppressed
- abn/delay, gastrulation is abnormal or delayed (% of total embryos) [4, 17]: 6.7%
- abn/delay, gastrulation is abnormal or delayed (number of embryos) [4, 17]: 15
- dead (% of total embryos) [4, 17]: 43%
- dead (number of embryos) [4, 17]: 97
- epib blk, epiboly block phenotype (% of total embryos) [4, 17]: 29%
- epib blk, epiboly block phenotype (number of embryos) [4, 17]: 65
- epib red, partial phenotype (% of total embryos) [4, 17]: 8%
- epib red, partial phenotype (number of embryos) [4, 17]: 18
- norm. (% of total embryos) [4, 17]: 11%
- norm. (number of embryos) [4, 17]: 24
- Tot survivors ([4]; Table 4): 128
- abn/delay (% of surviving embryos) ([4]; Table 4, surviving embryos): (12%)
- abn/delay (number of surviving embryos) ([4]; Table 4, surviving embryos): 15
- epib blk (number of surviving embryos) ([4]; Table 4, surviving embryos): 65
- epib red (number of surviving embryos) ([4]; Table 4, surviving embryos): 18
- normal (% of surviving embryos) ([4]; Table 4, surviving embryos): 19%
- normal (number of surviving embryos) ([4]; Table 4, surviving embryos): 24
- mortality rates ([4]; by the onset of gastrulation, ~20 hours after microinjection at the 2-cell stage, 16° C.): 43-45%
- mortality at the onset of gastrulation versus controls ([4]; in vivo): Neither pTyr51-H4 nor AIM-100 lead to increased mortality
- timing or pattern of early cleavages ([4]; in vivo): did not alter
- epib blk, epiboly block/involution failure (% of surviving embryos) ([4]; surviving embryos): 51%
- epib red, partial reduced epiboly phenotype (% of surviving embryos) ([4]; surviving embryos): 14%
- epib blk, epiboly block/involution failure (% of surviving embryos) ([4]; surviving embryos, listed as AIM 100): (51%)
- H4 Tyr88-phosphorylation [5]: significantly decreased; also recorded: significantly reduced
- H4 pTyr51-phosphorylation [6]: almost complete loss
- Ack1 phosphorylation of H3 at Tyr99 [7]: significantly compromised
- testosterone-independent expression of PSA, NKX3,1 and TMPRSS2 genes [8]: suppressed
- H4 pTyr51-phosphorylation [9]: abrogated

- recruitment of NPAT and RNA polymerase II [11]: binding was detected
Compound: MK-1775
- occurrence of pTyr37-H2B at site I and II [10]: significantly reduced
- histone mRNA levels [12]: did not decrease
- histone mRNA levels [13]: significant increase
- sensitization to DNA damaging agents such as gemcitabine, 5-fluorouracil [14]: able to sensitize
- apoptosis [15]: selectively induce apoptosis

Compound: COS(C)(=O)=O [MMS, Methylmethane sulphonate]
- sensitivity of H2BY40A mutants [16]: acute sensitivity; also recorded: marked sensitivity
